# Source: paper PMC4141209 (FEBS Open Bio, 2014)
# Read-outs that look alike come from different tables or passages of the source.
# Assays:
# TlLhpI [1] = experiment: NADH oxidation at […] nm; type: biochemical, Thermococcus litoralis; conditions: NADH 0.15 mM, NH4Cl 700 mM, Tris-HCl pH 8.0, 50 °C
# TlLhpI [2] = conditions: NADH 0.15 mM, NH4Cl 700 mM, Tris-HCl pH 8.0, 50 °C
# TlLhpI [3] = experiment: NAD+ reduction at […] nm; type: biochemical, Thermococcus litoralis
# TlLhpI [4] = conditions: NAD+ 1.5 mM, Bis-tris propane pH 10.5, 50 °C
# TlLhpI [5] = experiment: NADH oxidation at […] nm; type: biochemical, Thermococcus litoralis; conditions: NADH 0.15 mM, potassium phosphate pH 6.0, 50 °C
# TlLhpI [6] = conditions: NADH 0.15 mM, potassium phosphate pH 6.0, 50 °C
# [7] = NAD+ 1.5 mM, Bis-tris propane pH 10.5, 50 °C
# [8] = NAD+-dependent oxidation, 50 °C
SMILES,Km (TlLhpI [1]) [µM],Km (TlLhpI [3]; [7]) [µM],also measured
CCC(=O)C(=O)O [2-Oxobutyrate],701 ± 20,,
CCCC(=O)C(=O)O [2-Oxovalerate],969 ± 93,,Km (TlLhpI [2]): 1820 ± 140 µM
CC(C)CC(=O)C(=O)O [4-Methyl-2-oxovalerate],2520 ± 450,,
CC[C@H](N)C(=O)O [L-2-Aminobutyrate],,6000 ± 290,
CCC[C@H](N)C(=O)O [L-2-Aminovalerate],,306 ± 9,Km (TlLhpI [4]): 2130 ± 300 µM
C[C@H](N)C(=O)O [L-Alanine],,18200 ± 5000,Km (TlLhpI [4]): 36900 ± 900 µM
CC(C)C[C@H](N)C(=O)O [L-Leucine],,1320 ± 100,
O=C(O)[C@@H]1CCCCN1 [L-Pipecolate],,,Km (TlLhpI [3]; [8]): 608 ± 115 µM
O=C(O)[C@@H]1CCCN1 [L-Proline],,1120 ± 120,Km (TlLhpI [4]): 444 ± 8 µM
CN[C@@H](C)C(=O)O [N-Methyl-L-alanine],,,Km (TlLhpI [3]; [8]): 406 ± 44 µM
O=C(O)CC(=O)C(=O)O [Oxalacetate],8860 ± 910,,
"O=C(O)C1=NCCC1 [Pyr2C, Δ^1-pyrroline-2-carboxylate]",,,Km (TlLhpI [5]): 944 ± 90 µM; Km (TlLhpI [6]): 2770 ± 440 µM
CC(=O)C(=O)O [Pyruvate],9370 ± 230,,Km (TlLhpI [2]): 62000 ± 12200 µM
